Assay results reported in patent US11022605B2 (priority 2016, dated 2021).

Assays:
[1] = in vivo; cited from earlier work
[2] = system: colon cancer; settings: cited from earlier work
[3] = system: neuromuscular junction model (motoneurons synapsed onto skeletal muscle); assay type: cell-based

## CC1(C)C(C=C(Cl)Cl)C1C(=O)OCc1cccc(Oc2ccccc2)c1 (stereo not drawn) [1R-cis-, permethrin]
[1]
  activity of stereoisomer: active

## CC1(C)C(C=C(Cl)Cl)C1C(=O)OCc1cccc(Oc2ccccc2)c1 (stereo not drawn) [1R-trans-, permethrin]
[1]
  activity of stereoisomer: active

## O=c1[nH]c(=O)n(C2CCCO2)cc1F (stereo not drawn) [Tegafur]
[2]
  optimal uracil to Tegafur ratio for maximizing 5-FU in the tumor relative to blood: 4 to 1

## CC1(C)C(C=C(Cl)Cl)C1C(=O)OCc1cccc(Oc2ccccc2)c1 (stereo not drawn) [cis-permethrin]
[1]
  toxicity relative to trans isomers: about ten times more toxic

## O=c1cc[nH]c(=O)[nH]1 [uracil]
[2]
  effect on toxicity of Tegafur: enhances the toxicity of Tegafur

## curare
[3]
  dip frequency sensitivity: approximately exponential
  effect on contractile response: inhibitory based on concentration
  form of fitted dose-response curve of muscle contraction: biphasic curve
  plateau region of biphasic curve versus stimulation frequency: shrinks exponentially for increasing frequency
